Laboratory results taken from US9499493B2, “2,4-pyrimidinediamine compounds and their uses” (Rigel Pharmaceuticals, Inc., priority 2002, dated 2016).
Where a name gives a salt, the structure may show the parent alone.

Tests used:
[1] = system: cultured human mast cells (CHMC); assay: CHMC low cell density ionomycin activation: tryptase assay; assay type: cell-based
[2] = system: cultured human mast cells (CHMC); assay: CHMC low cell density IgE activation: tryptase assay; assay type: cell-based; conditions: anti-IgE
In short: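 Degranulation was triggered with anti-IgE for 30 minutes at 37° C in cultured human mast cells seeded at low density (1000-1500 cells/well, chosen by donor) after a 1 hr equilibration in MT buffer. Released tryptase in cleared supernatant was quantified with a tryptase substrate at room temperature for 30 minutes.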

In the case of Cc1nc(COc2cccc(Nc3ncc(F)c(Nc4ccc5oc(C(=O)O)cc5c4)n3)c2)no1 [R945134, N4-(2-Carboxybenzofuran-5-yl)-5-fluoro-N2-[3-(5-methyl-1,2,4-oxadiazol-3-yl)methyleneoxyphenyl]-2,4-pyrimidinediamine], the IC50 [1] is reported as greater than 10000 nM and the IC50 [2] is reported as greater than 10000 nM.
For Cc1nc(COc2cccc(Nc3ncc(F)c(Nc4ccc5oc(C(N)=O)cc5c4)n3)c2)no1 [R945135, N4-(2-Aminocarbonylbenzofuran-5-yl)-5-fluoro-N2-[3-(5-methyl-1,2,4-oxadiazol-3-yl)methyleneoxyphenyl]-2,4-pyrimidinediamine], the IC50 [1] was 8240 nM and the IC50 [2] was 986 nM.
Work on Cc1nc(COc2cccc(Nc3nc(Nc4ccc5c(c4)OCCO5)ncc3F)c2)no1 [R945137, N2-(3,4-Ethylenedioxyphenyl)-5-fluoro-N4-[3-(5-methyl-1,2,4-oxadiazol-3-yl)methyleneoxyphenyl]-2,4-pyrimidinediamine] yielded an IC50 [1] greater than 10000 nM and an IC50 [2] of 1650 nM.
Compound Cc1nc(COc2cccc(Nc3nc(Nc4ccc(OC(C)C)cc4)ncc3F)c2)no1 [R945138, 5-Fluoro-N2-(4-isopropoxyphenyl)-N4-[3-(5-methyl-1,2,4-oxadiazol-3-yl)methyleneoxyphenyl]-2,4-pyrimidinediamine] has an IC50 [1] of 6730 nM and an IC50 [2] of 1060 nM.
COC(=O)COc1cccc(Nc2ncc(F)c(Nc3cc(C)c(O)c(C)c3)n2)c1 [R945139, N4-(3,5-Dimethyl-4-hydroxyphenyl)-5-fluoro-N2-(3-methoxycarbonylmethyleneoxyphenyl)-2,4-pyrimidinediamine] gave an IC50 [1] greater than 10000 nM and an IC50 [2] of 1020 nM.
In the case of COC(=O)COc1cccc(Nc2ncc(F)c(Nc3cc(C)c(O)c(Cl)c3)n2)c1 [R945148, N4-(3-Chloro-4-hydroxy-5-methylphenyl)-5-fluoro-N2-(3-methoxycarbonylmethyleneoxyphenyl)-2,4-pyrimidinediamine], the IC50 [1] is reported as greater than 10000 nM and the IC50 [2] is reported as 307 nM.
Cc1cc(Nc2nc(Nc3cccc(OCC(=O)N4CCNCC4)c3)ncc2F)cc(Cl)c1O [R945149, N4-(3-Chloro-4-hydroxy-5-methylphenyl)-5-fluoro-N2-[3-(N-piperazino)carbonylmethyleneoxyphenyl]-2,4-pyrimidinediamine] was tested, and the IC50 [1] was greater than 10000 nM and the IC50 [2] was 391 nM.
Work on COC(=O)COc1cccc(Nc2ncc(F)c(Nc3cc(C)c(OC)c(C)c3)n2)c1 [R945153, N4-(3,5-Dimethyl-4-methoxyphenyl)-5-fluoro-N2-(3-methoxycarbonylmethyleneoxyphenyl)-2,4-pyrimidinediamine] yielded an IC50 [1] of 6560 nM and an IC50 [2] of 688 nM.
Compound COc1c(C)cc(Nc2nc(Nc3cccc(OCC(=O)N4CCNCC4)c3)ncc2F)cc1C [R945156, N4-(3,5-Dimethyl-4-methoxyphenyl)-5-fluoro-N2-[3-(N-piperazino)carbonylmethyleneoxyphenyl]-2,4-pyrimidinediamine] has an IC50 [1] greater than 10000 nM and an IC50 [2] of 787 nM.
COc1c(C)cc(Nc2nc(Nc3cccc(OCCN4CCNCC4)c3)ncc2F)cc1C [R945157, N4-(3,5-Dimethyl-4-methoxyphenyl)-5-fluoro-N2-[3-[2-(N-piperazino)ethoxy]phenyl]-2,4-pyrimidinediamine Dihydrochloride Salt] showed an IC50 [1] greater than 10000 nM and an IC50 [2] of 1480 nM.
CON=C(N)COc1ccc(Nc2ncc(F)c(Nc3cccc(O)c3)n2)cc1 [R945167, 5-Fluoro-N4-(3-hydroxyphenyl)-N2-[4-(2-methoxyimino(amino)ethyleneoxy)phenyl]-2,4-pyrimidinediamine] was tested, and the IC50 [1] was greater than 10000 nM and the IC50 [2] was 761 nM.
With Oc1cccc(Nc2nc(Nc3ccc(OCC4=NCCCN4)cc3)ncc2F)c1 [R945169, 5-Fluoro-N4-(3-hydroxyphenyl)-N2-[4-(1,4,5,6-tetrahydro-2-pyrimidyl)methyleneoxyphenyl]-2,4-pyrimidinediamine] the IC50 [1] was greater than 10000 nM and the IC50 [2] was 10000 nM.
For CNC(=O)COc1ccc(Nc2ncc(F)c(Nc3cccc(O)c3)n2)cc1 [R945170, 5-Fluoro-N4-(3-hydroxyphenyl)-N2-[4-(N-methylamino)carbonylmethyleneoxyphenyl]-2,4-pyrimidinediamine], the IC50 [1] was greater than 10000 nM and the IC50 [2] was 661 nM.
